Consider 39 compounds from US8546389B2 (priority 2010, dated 2013).

Assay [1] addresses 1b (BK) NS5bΔ21 (Hepatitis C virus genotype 1b (isolate BK) (HCV), UniProt P26663). Kind of assay: HCV polymerase inhibition assay, genotype 1b. The format is biochemical, HCV genotype 1b (BK). To be noted: 1b (BK) NS5bΔ21, 33P-GTP incorporation; read-out: 1b polymerase IC50 (range class). The procedure, abridged:
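NS5bΔ21 (50 nM) in Tris-HCl pH 7.5 with Mg2+/Mn2+, DTT, BSA, 0.5% DMSO, poly(rC) template, GTP at Km and ^33P-GTP; 3-fold compound dilutions. GTP-started reactions stopped with EDTA after 1 h; incorporation read by DEAE filter scintillation counting. IC50 by non-linear regression; 3a enzyme run the same way.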

Assay [2] deals with genotype 1b (Con 1) subgenomic replicon cell line. Briefly: HCV replicon assay, genotype 1b (Renilla luciferase). It is filed as cell-based, HCV genotype 1b (Con 1). To be noted: Hepatitis C virus; genotype 1b replicon, 72 hours, luciferase; read-out: genotype 1b EC50 (range class). The procedure, abridged: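 Subgenomic replicon cells expressing Renilla luciferase (1b Con1; 1a and 2a lines by the same method) seeded at 7000 cells/well (5000 for 2a) without G418, exposed to 3-fold compound dilutions for 72 h at 37 °C. Luciferase activity measured; EC50 by non-linear regression.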
A general note: In antiviral work, replicon cells carry a viral genome segment that copies itself.

Chain of 1b (BK) NS5bΔ21 (P26663 2420-2989): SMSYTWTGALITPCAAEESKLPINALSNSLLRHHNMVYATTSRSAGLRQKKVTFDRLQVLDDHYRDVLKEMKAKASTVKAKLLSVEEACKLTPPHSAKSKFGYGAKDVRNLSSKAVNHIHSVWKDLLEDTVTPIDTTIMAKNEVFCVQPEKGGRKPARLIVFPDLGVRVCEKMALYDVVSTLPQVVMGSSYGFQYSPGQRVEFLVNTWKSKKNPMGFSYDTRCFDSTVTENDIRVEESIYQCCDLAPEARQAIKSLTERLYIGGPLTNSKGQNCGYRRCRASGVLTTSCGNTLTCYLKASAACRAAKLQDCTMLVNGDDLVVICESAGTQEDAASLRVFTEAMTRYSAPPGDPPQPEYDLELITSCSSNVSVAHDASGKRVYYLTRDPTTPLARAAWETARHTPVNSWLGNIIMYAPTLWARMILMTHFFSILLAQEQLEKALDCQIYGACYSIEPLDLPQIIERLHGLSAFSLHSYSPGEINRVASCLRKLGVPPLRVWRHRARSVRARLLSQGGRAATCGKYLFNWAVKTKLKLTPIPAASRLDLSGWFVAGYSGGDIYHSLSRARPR

For `CNC(=O)c1c2cc(C3CC3)c(N(CCC(CO)CO)S(C)(=O)=O)cc2nn1-c1ccc(Br)cc1` [Compound 96, 2-(4-bromophenyl)-5-cyclopropyl-6-{[4-hydroxy-3-(hydroxymethyl)butyl] (methylsulfonyl)amino}-N-methyl-2H-indazole-3-carboxamide], in assay [1], the IC50 (usually the point on the concentration scale where inhibition reaches its midpoint) was under 0.99 µM. The EC50 (as a rule, the concentration at which the effect is half-maximal) in assay [2] was under 0.99 µM.

Regarding `CNC(=O)c1c2cc(C3CC3)c(N(CCCC(=O)O)S(C)(=O)=O)cc2nn1-c1ccc(C)cc1` [Compound 229], in assay [1], the IC50 is under 0.99 µM. In addition, the EC50 in assay [2] fell in the range of 10 to 50 µM.

With `CNC(=O)c1c2cc(C3CC3)c(N(CCCNC(=O)CCC(=O)NC(C)C)S(C)(=O)=O)cc2nn1-c1ccc(Br)cc1` [Compound 67], in assay [1], the IC50 is under 0.99 µM. Also, in assay [2], the EC50 lay within 1 to 9.99 µM.

With `CNC(=O)c1c2cc(C3CC3)c(N(CCCC(=O)OC)S(C)(=O)=O)cc2nn1-c1ccc(Cl)cc1` [Compound 207], the IC50 in assay [1] was under 0.99 µM. Also, the EC50 in assay [2] lay in the range of 1 to 9.99 µM.

For `CNC(=O)c1c2cc(C3CC3)c(N([C@H]3CCNC3)S(C)(=O)=O)cc2nn1-c1ccc(Br)cc1` (racemic) [Compound 195], the IC50 in assay [1] fell in the range of 1 to 9.99 µM. The EC50 in assay [2] was 10 to 50 µM.

As for `CNC(=O)c1c2cc(C3CC3)c(N(CCCS(C)(=O)=O)S(C)(=O)=O)cc2nn1-c1ccc(Br)cc1` [Compound 100, 2-(4-bromophenyl)-5-cyclopropyl-N-methyl-6-[methylsulfonyl(3-methylsulfonylpropyl)amino]-2H-indazole-3-carboxamide], the IC50 in assay [1] is under 0.99 µM. Further, the EC50 in assay [2] was under 0.99 µM.

Take `CNC(=O)c1c2cc(C3CC3)c(N(CCC(CO)CO)S(C)(=O)=O)cc2nn1-c1ccc(Cl)cc1` [Compound 238]: the IC50 in assay [1] is under 0.99 µM. Besides, the EC50 in assay [2] fell in the range of 1 to 9.99 µM.

Consider `CNC(=O)c1c2cc(C3CC3)c(-c3nccn3C)cc2nn1-c1ccc(F)cc1` [Compound 157], for which, in assay [1], the IC50 lay within 1 to 9.99 µM. The EC50 in assay [2] was 10 to 50 µM.

`CCOC(=O)CCCC(c1cc2nn(-c3ccc(C)cc3)c(C(=O)NC)c2cc1C1CC1)S(C)(=O)=O` (racemic) [Compound 85, ethyl 5-[5-cyclopropyl-3-(methylcarbamoyl)-2-(4-methylphenyl)-2H-indazol-6-yl]-5-(methylsulfonyl)pentanoate]: the IC50 in assay [1] fell in the range of 10 to 50 µM. The EC50 in assay [2] was in the range of 10 to 50 µM.

With `CNC(=O)c1c2cc(C3CC3)c(N(CC3CCOC3)S(C)(=O)=O)cc2nn1-c1ccc(Cl)cc1` (stereo not drawn) [Compound 252], in assay [1], the IC50 was under 0.99 µM. In addition, in assay [2], the EC50 is under 0.99 µM.

As to `CNC(=O)c1c2cc(C3CC3)c(N(CCC3CCOCC3)S(C)(=O)=O)cc2nn1-c1ccc(Cl)cc1` [Compound 250], the IC50 in assay [1] was under 0.99 µM. Further, the EC50 in assay [2] is under 0.99 µM.

As for `CNC(=O)c1c2cc(C3CC3)c(N(CCCNC(=O)c3cnoc3C)S(C)(=O)=O)cc2nn1-c1ccc(Br)cc1` [Compound 173], in assay [1], the IC50 was under 0.99 µM. Moreover, the EC50 in assay [2] was under 0.99 µM.

With `CCN(c1cc2nn(-c3ccc(F)cc3)c(C(=O)NC)c2cc1Br)S(C)(=O)=O` [Compound 132], the IC50 in assay [1] is 1 to 9.99 µM. For the same compound, in assay [2], the EC50 is 10 to 50 µM.

As to `CNC(=O)c1c2cc(C3CC3)c(N(CCCNC(=O)C3COCCN3C)S(C)(=O)=O)cc2nn1-c1ccc(Br)cc1` (stereo not drawn) [Compound 64, 2-(4-Bromophenyl)-5-cyclopropyl-N-methyl-6-{[3-({[4-methylmorpholin-3-yl]carbonyl}amino)propyl](methylsulfonyl)amino}-2H-indazole-3-carboxamide], the IC50 in assay [1] is under 0.99 µM. In addition, the EC50 in assay [2] was under 0.99 µM.

`CNC(=O)c1c2cc(C3CC3)c(N(CCCN3C(=O)c4ccccc4C3=O)S(C)(=O)=O)cc2nn1-c1ccc(Br)cc1` [Compound 169]: the IC50 in assay [1] was under 0.99 µM. The half-maximal effective concentration (EC50) in assay [2] is under 0.99 µM.

Turning to `CCN(c1cc2nn(-c3ccc(F)cc3)c(C(=O)NC)c2cc1/C=C\CO)S(C)(=O)=O` [Compound 76, 6-[ethyl(methylsulfonyl)amino]-2-(4-fluorophenyl)-5[(1Z)-3-hydroxyprop-1-en-1-yl]-N-methyl-2H-indazole-3-carboxamide], in assay [1], the IC50 lay in the range of 10 to 50 µM. For the same compound, the EC50 in assay [2] was 1 to 9.99 µM.

Consider `CCN(c1cc2nn(-c3ccc(NCC(C)C)nc3)c(C(=O)NC)c2cc1C1CC1)S(C)(=O)=O` [Compound 110, 5-cyclopropyl-6-[ethyl(methylsulfonyl)amino]-2-[6-(isobutylamino)-3-pyridyl]-N-methyl-2H-indazole-3-carboxamide], for which, in assay [1], the IC50 was under 0.99 µM. Moreover, the EC50 in assay [2] is under 0.99 µM.

For `CNC(=O)c1c2cc(C3CC3)c(N(CCCNC(=O)c3cn(C)cn3)S(C)(=O)=O)cc2nn1-c1ccc(Br)cc1` [Compound 167], the IC50 in assay [1] was under 0.99 µM. In addition, the EC50 in assay [2] is under 0.99 µM.

For `CNC(=O)c1c2cc(C3CC3)c(N(CCCN(C)C)S(C)(=O)=O)cc2nn1-c1ccc(Cl)cc1` [Compound 199], the IC50 in assay [1] lay in the range of 1 to 9.99 µM. Further, in assay [2], the EC50 was under 0.99 µM.

For the compound `CCN(c1cc2nn(-c3ccc(F)cc3)c(C(=O)NC)c2cc1C)S(C)(=O)=O` [Compound 139], the IC50 in assay [1] was 1 to 9.99 µM. For the same compound, the EC50 in assay [2] is 10 to 50 µM.

Regarding `CNC(=O)c1c2cc(C3CC3)c(N(CCCO)S(C)(=O)=O)cc2nn1-c1ccc(Br)c(F)c1` [Compound 223], the IC50 in assay [1] was under 0.99 µM. Also, the EC50 in assay [2] is under 0.99 µM.

Regarding `CNC(=O)c1c2cc(C3CC3)c(N(CCCNC(=O)CCN)S(C)(=O)=O)cc2nn1-c1ccc(Br)cc1` [Compound 61, 6-{[3-(β-Alanylamino)propyl](methylsulfonyl)amino}-2-(4-bromophenyl)-5-cyclopropyl-N-methyl-2H-indazole-3-carboxamide], the IC50 in assay [1] is under 0.99 µM. In addition, in assay [2], the half-maximal effective concentration (EC50) lay in the range of 1 to 9.99 µM.

On to `CNC(=O)c1c2cc(C3CC3)c(N(CCCO)S(C)(=O)=O)cc2nn1-c1ccc(NCC(C)C)cc1` [Compound 122], for which, in assay [1], the 50% inhibitory concentration (IC50) lay within 1 to 9.99 µM. Besides, the EC50 in assay [2] is under 0.99 µM.

Turning to `CCC(C)OC(=O)CCCN(c1cc2nn(-c3ccc(Br)cc3)c(C(=O)NC)c2cc1C1CC1)S(C)(=O)=O` (stereo not drawn) [Compound 92, butan-2-yl 4-{[2-(4-bromophenyl)-5-cyclopropyl-3-(methylcarbamoyl)-2H-indazol-6-yl](methylsulfonyl)amino}butanoate], the IC50 in assay [1] was under 0.99 µM. Besides, in assay [2], the EC50 was under 0.99 µM.

`CCN(c1cc2nn(-c3ccc(Cl)c(F)c3)c(C(=O)NC)c2cc1C1CC1)S(C)(=O)=O` [Compound 239]: the IC50 in assay [1] was under 0.99 µM. Also, the EC50 in assay [2] is under 0.99 µM.

On to `CNC(=O)c1c2cc(C3CC3)c(N(CCCNC(=O)[C@H]3COCCN3C)S(C)(=O)=O)cc2nn1-c1ccc(Cl)cc1` [Compound 205], for which the IC50 in assay [1] is under 0.99 µM. In assay [2], the EC50 was under 0.99 µM.

As to `CNC(=O)c1c2cc(C3CC3)c(N(CCCNC(=O)c3ccccc3)S(C)(=O)=O)cc2nn1-c1ccc(Cl)cc1` [Compound 197], the IC50 in assay [1] is under 0.99 µM. In addition, the EC50 in assay [2] is under 0.99 µM.

For the compound `CNC(=O)c1c2cc(C3CC3)c(N(Cc3ccncc3)S(C)(=O)=O)cc2nn1-c1ccc(Br)cc1` [Compound 140], the IC50 in assay [1] was under 0.99 µM. For the same compound, the EC50 in assay [2] was under 0.99 µM.

Turning to `CCN(c1cc2nn(-c3ccc(NCC(C)C)cc3)c(C(=O)NC)c2cc1OC)S(C)(=O)=O` [Compound 124], the IC50 in assay [1] lay in the range of 1 to 9.99 µM. Moreover, the EC50 in assay [2] fell in the range of 1 to 9.99 µM.

Take `CNC(=O)c1c2cc(C3CC3)c(N(CCCN3CCOCC3)S(C)(=O)=O)cc2nn1-c1ccc(Cl)cc1` [Compound 201]: the IC50 in assay [1] is under 0.99 µM. Further, in assay [2], the EC50 was under 0.99 µM.

Take `CNC(=O)CCN(c1cc2nn(-c3ccc(Br)cc3)c(C(=O)NC)c2cc1C1CC1)S(C)(=O)=O` [Compound 148]: the IC50 in assay [1] was under 0.99 µM. In addition, the EC50 in assay [2] was 1 to 9.99 µM.

As for `CNC(=O)c1c2cc(C3CC3)c(N(CCCNC(=O)c3ccco3)S(C)(=O)=O)cc2nn1-c1ccc(Br)cc1` [Compound 181], the IC50 in assay [1] is under 0.99 µM. Further, the EC50 in assay [2] was under 0.99 µM.

Turning to `CCN(c1cc2nn(-c3ccc(Br)c(F)c3)c(C(=O)NC)c2cc1C1CC1)S(C)(=O)=O` [Compound 236], the IC50 in assay [1] is under 0.99 µM. Besides, the EC50 in assay [2] was under 0.99 µM.

For the compound `CNC(=O)c1c2cc(C3CC3)c(N(CCCNC(=O)CCOC)S(C)(=O)=O)cc2nn1-c1ccc(Br)cc1` [Compound 161], the IC50 in assay [1] is under 0.99 µM. For the same compound, the EC50 in assay [2] is under 0.99 µM.

On to `CNC(=O)c1c2cc(C3CC3)c(N(CCCNC(=O)c3ccn(C)c(=O)c3)S(C)(=O)=O)cc2nn1-c1ccc(Br)cc1` [Compound 219], for which the IC50 in assay [1] was under 0.99 µM. In assay [2], the EC50 lay in the range of 1 to 9.99 µM.

With `CCN(c1cc2nn(-c3ccc(NC)nc3)c(C(=O)NC)c2cc1C1CC1)S(C)(=O)=O` [Compound 255], in assay [1], the IC50 was under 0.99 µM. Further, in assay [2], the EC50 is under 0.99 µM.

As to `CCN(c1cc2nn(-c3ccc(F)cc3)c(C(=O)NC)c2cc1C1CCCC1)S(C)(=O)=O` [Compound 74, 5-cyclopentyl-6-[ethyl(methylsulfonyl)amino]-2-(4-fluorophenyl)-N-methyl-2H-indazole-3-carboxamide], in assay [1], the IC50 fell in the range of 10 to 50 µM. Also, the EC50 in assay [2] is 1 to 9.99 µM.

For the compound `CC[C@H](c1cc2nn(-c3ccc(F)cc3)c(C(=O)NC)c2cc1C1CC1)S(C)(=O)=O` (racemic) [Compound 240], the IC50 in assay [1] was in the range of 10 to 50 µM. Further, in assay [2], the EC50 was 10 to 50 µM.

With `CNC(=O)c1c2cc(C3CC3)c(N(CCCC(C(=O)O)C(=O)O)S(C)(=O)=O)cc2nn1-c1ccc(Br)cc1` [Compound 224], in assay [1], the IC50 was under 0.99 µM. For the same compound, in assay [2], the EC50 was 1 to 9.99 µM.
